The values that follow come from article PMC7367283, “A PIP2 substitute mediates voltage sensor-pore coupling in KCNQ activation” (Communications Biology, 2020).

The target of this experiment is T1, Kir1.1 (Homo sapiens, UniProt P48048).
T1 sequence (P48048 1-391): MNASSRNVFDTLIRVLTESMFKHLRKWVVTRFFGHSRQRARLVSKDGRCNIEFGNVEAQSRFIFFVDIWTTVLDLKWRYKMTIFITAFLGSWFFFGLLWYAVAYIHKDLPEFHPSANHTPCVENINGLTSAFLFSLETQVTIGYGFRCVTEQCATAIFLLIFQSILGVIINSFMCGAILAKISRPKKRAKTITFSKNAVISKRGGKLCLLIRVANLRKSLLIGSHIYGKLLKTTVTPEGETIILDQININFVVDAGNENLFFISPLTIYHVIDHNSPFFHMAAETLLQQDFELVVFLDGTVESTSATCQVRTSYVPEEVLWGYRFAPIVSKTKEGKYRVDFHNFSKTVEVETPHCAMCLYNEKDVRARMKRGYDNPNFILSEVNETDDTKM
As to the kind of experiment: Two-electrode voltage clamp of Kir1.1 in Xenopus oocytes. Format: cell-based. The note with it: 10 µM CP1; for Current (Fig. 6b): mean. The source says:
Since CP1 has a similar effect to PIP2 in mediating VSD-pore coupling in KCNQ channels, we tested if CP1 has effects on other ion channels that are also sensitive to PIP2 or are voltage activated and share general structural features of the VSD and the pore with KCNQ. […] On the other hand, NaV1.5 and KV4.2 are voltage-gated ion channels.
Fig. 6 Effects of CP1 on other ion channels expressed in Xenopus oocytes. a Currents of Kir1.1, CaV1.2, NaV1.5, hERG, and KV4.2 before and after application of 10 µM CP1, respectively. The voltages for holding, test, and returning pulses were Kir1.1, 0 mV, −100 to +60 mV, 0; CaV1.2, −100 mV, −100 to +60, −100 mV; NaV1.5, −100, −120 to +40 mV, −120 mV; hERG, −80 mV, −90 to +60 mV, −60 mV; KV4.2, −80 mV, −100 mV to +80 mV, −40 mV; HCN4, −30 mV, −30 to −140 mV, −120 mV. b Current–voltage relations of Kir1.1 channel in the absence or presence of 10 µM CP1 (n = 7). c–g G–V relations of indicated channels with and without 10 µM CP1. The ΔV1/2 of G–V relations (mV) are CaV1.2, 3.38 ± 0.71 mV (c); NaV1.5, −2.26 ± 0.95 mV (d); hERG, 6.85 ± 1.81 mV (e); KV 4.2, −2.26 ± 2.88 mV (f); HCN4, 17.13 ± 1.59 mV (g).
Complementary DNA (cDNA) encoding human KCNQ1 (UniProtKB/Swiss‐Prot under accession no. P51787), KCNQ2 (O43526), KCNQ3 (O43525), KCNE1 (P15382), Kir1.1 (P48048), hERG (Q12809), KV4.2 (Q63881), NaV1.5 (Q14524), NaV β1 (Q07699), CaV1.2 (Q13936), CaV β1a (Q02641), CaV α2/δ1 (P54289), and HCN4 (Q9Y3Q4) were subcloned into oocyte expression vectors, respectively. Site-directed mutations of the KCNQ1 channel were all produced by overlap extension polymerase chain reaction (PCR) with high-fidelity Pfu polymerase (Stratagene, CA). The presence of the desired mutation was verified by sequencing the PCR-amplified regions. All the primer sequences used in this study are available in Supplementary Table 1. The complementary RNA (cRNA) of all these channels and mutations was transcribed in vitro with the T3, T7, or SP6 polymerase mMessage mMachine kit (Invitrogen, Thermo Fisher Scientific, MO).
The whole-oocyte ionic currents were recorded with a GeneClamp 500B amplifier (Axon Instruments, CA) or iTEV90 amplifier (HEKA, Germany) and then sampled at 1 kHz and low-pass-filtered at 2 kHz. The Patchmaster software (HEKA, Germany) was used to acquire data. The Kir1.1 current was recorded with a high K^+ bath solution containing (in mM) 96 KCl, 4 NaCl, 1 CaCl2, 2 MgCl2, and 10 HEPES, pH 7.3–7.4. The HCN4 current was recorded in ND66 solution containing (in mM) 66 NaCl, 32 KCl, 1.8 CaCl2, 1 MgCl2, and 5 HEPES, pH 7.6. All the other potassium channels were recorded in ND96 solution. The currents of CaV1.2 channel were recorded in 40 mM Ba^2+ bath solution containing (in mM) 40 Ba(OH)2, 50 TEA-OH, 2 KOH, and 5 HEPES, adjusted to pH 7.4 with methanesulfonic acid. CP1 (DISODIUM 5-BROMO-2-[9-CHLORO-3-(SULFONATOOXY) NAPHTHO [1,2-B] THIEN-2-YL]-1H-INDOL-3-YL SULFATE, Sigma-Aldrich, MO) and Chromanol 293B (Sigma-Aldrich, MO) were dissolved in bath solutions. All the chemicals were purchased from Sigma-Aldrich. To measure the I–V relations of the Kir1.1 channel, the test voltage was set from −100 to +60 mV for 1 s with 20-mV increments. The test pulses were stepped from a holding potential of 0 mV and then stepped back to 0 mV. The HCN4 currents were recorded by a test pulse between −30 and −140 mV in 10-mV step from a holding potential of −30 mV. For all the other potassium channels and CaV1.2 channel, the holding potential was −80 or −100 mV, and the test pulse was applied with 10-mV increment, which was followed with a repolarization pulse at −40 mV before returning to the holding potential. The durations of test and the repolarization pulse vary for different channels to allow the activation and deactivation of the channel to reach their steady states.
Background: Two-electrode voltage clamp holds a large cell at a set potential and records current.

Turning to `O=S(=O)([O-])Oc1c(-c2sc3c(ccc4cccc(Cl)c43)c2OS(=O)(=O)[O-])[nH]c2ccc(Br)cc12.[Na+].[Na+]` [CP1, DISODIUM 5-BROMO-2-[9-CHLORO-3-(SULFONATOOXY) NAPHTHO [1,2-B] THIEN-2-YL]-1H-INDOL-3-YL SULFATE], the “effect on currents of Kir1.1” value is on record as “little effect”. Moreover, for the setting “voltage 0 mV”, the “Current (Fig. 6b)” value is given as -0.8738 µA. Also, under “voltage 20 mV”, the “Current (Fig. 6b)” value turned out to be 8.1285 µA. In addition, under “voltage 40 mV”, the “Current (Fig. 6b)” value turned out to be 17.0203 µA. Besides, the “Current (Fig. 6b)” value (voltage 60 mV) is 25.9074 µA. The “Current (Fig. 6b)” value (voltage -20 mV) was -9.7186 µA. The “Current (Fig. 6b)” value (voltage -40 mV) is listed as -18.5616 µA. Moreover, where the note is “voltage -60 mV”, the “Current (Fig. 6b)” value is on record as -27.3089 µA. Moreover, the “Current (Fig. 6b)” value (voltage -80 mV) is on record as -36.1588 µA. The “Current (Fig. 6b)” value (voltage -100 mV) is -44.9245 µA.
